In patent publication US7094909B2, “HIV protease inhibitors, compositions containing the same, their pharmaceutical uses and materials for their synthesis” (priority 2001, dated 2006):
Like-named read-outs stand apart in the source and are kept apart here.

Legend:
[1] = tested on: HIV-1 NL4-3 or HIV-1 NL4-3(I84V/L90M); experiment: Susceptibility assay, p24 ELISA in infected MT-2 cells; assay type: cell-based; details: Human immunodeficiency virus 1, NL43, MT2, read-out: EC50 or IC50 (mM), values without asterisk (EC50)
Protocol: T-cell lines, CEM-SS, and MT-2, and viruses HIV-1 RF and HIV-1 NL4-3 (pNL4-3) were obtained from the National Institutes of Health (AIDS Research and Reference Reagent Program, Bethesda, Md.).
Compounds were tested in phenotypic susceptibility assays at Virologic, Inc., (See Petropoulos C. J., Parkin N. T., Limoli K. L., Lie Y. S., Wrin T., Huang W., Tian H., Smith D., Winslow G. A., Capon D J, Whitcomb J M. 2000, “A novel phenotypic drug susceptibility assay for human immunodeficiency virus type 1,” Antimicrob Agents Chemother 44(4):920–928) or using the assay described here. MT-2 cells were infected with either HIV-1 NL4-3 or HIV-1 NL4-3([…]) and incubated in the presence of serial 0.5 log dilutions of test compounds. Three days later, culture supernatants were collected and virus production, as determined by p24 ELISA, was assayed. Percent inhibition was calculated as p24 concentration in compound-treated samples as compared to infected, compound-free controls. Inhibition of viral replication is determined by measuring reduction in HIV p24 present in the culture supernatant, using a Beckman-Coulter p24HIV-1 Ag EIA kit and following the supplied protocol. Absorbance is read on a MRX microplate reader (Dynex Technologies). The EC50 was calculated as the concentration of compound that effected a decrease in the p24 production by infected, compound-treated cells to 50% of that produced by infected, compound-free cells.

[2] = tested on: HIV-1 (HIV-1 RF, HIV-1 NL4-3) in CEM-SS / MT-2 cells; experiment: Cytopathic effect (CPE) inhibition assay (XTT/MTT dye reduction); assay type: cell-based
In short: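 Readout is XTT reduction (A450, 4 h) after six days of culturing virus-infected (moi 0.025–0.819) or mock-infected CEM-SS/MT-2 cells, 2×10^4 per well, with half-log compound series. Antiviral EC50 and cytotoxic CC50 are relative to uninfected compound-free cells. Therapeutic index is CC50 divided by EC50.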

[3] = molecular target: T1, HIV-1 protease (Q7S mutant form) (Human immunodeficiency virus type 1 group M subtype B, UniProt P04585, Q495S); experiment: HIV-1 Protease RET assay; assay type: biochemical; details: Ave. Ki (nM), RET assay, Q7S enzyme, Morrison tight binding fit
T1 construct: made in house
In short: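 Ki values fitted with the Morrison tight-binding equation from steady-state RET cleavage (ex 340, em 490 nm) of 5 μM RE(EDANS)SQNYPIVQK(DABCYL)R. Buffer pH 4.8 acetate, 1M NaCl, 5 mM DTT, 1 mg/ml BSA, 10% DMSO; 2 nM Q7S mutant dimer, 37 °C, 12 min.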

[4] = Human immunodeficiency virus 1, NL43, read-out: Ave CPE EC50
[5] = Human immunodeficiency virus 1, NL43, read-out: Ave CPE EC50 (mM)

Compound | EC50 [1] | EC50 [2, 4] | Ki [3] | EC50 [2, 5]
Cc1c(O)cccc1C(=O)N[C@@H](Cc1ccccc1)[C@H](O)C(=O)N1CSC(C)(C)[C@H]1C(=O)N[C@H]1CCCc2sccc21 [Example A50, 3-[2-Hydroxy-3-(3-hydroxy-2-methyl-benzoylamino)-4-phenyl-butyryl]-5,5-dimethyl-thiazolidine-4-carboxylic acid (4,5,6,7-tetrahydro-benzo[b]thiophen-4-yl)-amide] | 125 nM | 24 nM | < 0.1 nM | 
Cc1c(O)cccc1C(=O)N[C@@H](Cc1ccccc1)[C@H](O)C(=O)N1CSC(C)(C)[C@H]1C(=O)N[C@H]1CCc2ncccc21 [Example A51, 3-[2-Hydroxy-3-(3-hydroxy-2-methyl-benzoylamino)-4-phenyl-butyryl]-5,5-dimethyl-thiazolidine-4-carboxylic acid (6,7-dihydro-5H-[1]pyrindin-5-yl)-amide] | 50 nM | 159 nM | < 0.1 nM | 
Cc1occc1CNC(=O)[C@H]1N(C(=O)[C@@H](O)[C@H](Cc2ccccc2)NC(=O)c2cccc(O)c2C)CSC1(C)C [Example A53, (R)-3-((2S,3S)-2-Hydroxy-3-{[1-(3-hydroxy-2-methyl-phenyl)-methanoyl]-amino}-4-phenyl-butanoyl)-5,5-dimethyl-thiazolidine-4-carboxylic acid (2-methyl-furan-3-ylmethyl)-amide] | 70 nM | 28 nM | < 0.1 nM | 
Cc1c(O)cccc1C(=O)N[C@@H](Cc1ccccc1)[C@H](O)C(=O)N1CSC(C)(C)[C@H]1C(=O)N[C@H]1CCOc2c(F)cc(F)cc21 [Example A55, (R)-3-((2S,3S)-2-Hydroxy-3-{[1-(3-hydroxy-2-methyl-phenyl)-methanoyl]-amino}-4-phenyl-butanoyl)-5,5-dimethyl-thiazolidine-4-carboxylic acid ((S)-6,8-difluoro-chroman-4-yl)-amide] | 798 nM | 54 nM | 0.21 nM | 
Cc1c(O)cccc1C(=O)N[C@@H](Cc1ccccc1)[C@H](O)C(=O)N1CSC(C)(C)[C@H]1C(=O)N[C@H]1CCc2cc(F)ccc21 [Example A56, (R)-3-((2S,3S)-2-Hydroxy-3-{[1-(3-hydroxy-2-methyl-phenyl)-methanoyl]-amino}-4-phenyl-butanoyl)-5,5-dimethyl-thiazolidine-4-carboxylic acid ((S)-5-fluoro-indan-1-yl)-amide] | 378 nM | 42 nM | 0.27 nM | 
C=CCOC(=O)N[C@@H](Cc1ccccc1)[C@H](O)C(=O)N1CSC(C)(C)[C@H]1C(=O)NCc1ccccc1C [Example B11, {(1S,2S)-1-Benzyl-3-[(R)-5,5-dimethyl-4-(2-methyl-benzylcarbamoyl)-thiazolidin-3-yl]-2-hydroxy-3-oxo-propyl}-carbamic acid allyl ester] | 2020 nM | 567 nM | 0.86 nM | 
Cc1ccccc1CNC(=O)[C@H]1N(C(=O)[C@@H](O)[C@H](Cc2ccccc2)NC(=O)CC(F)(F)F)CSC1(C)C [Example B19, (R)-3-[(2S,3S)-2-Hydroxy-4-phenyl-3-(3,3,3-trifluoropropionylamino)-butyryl]-5,5-dimethyl-thiazolidine-4-carboxylic acid 2-methyl-benzylamide] | 1300 nM | 1600 nM | 1.4 nM | 
Cc1ccccc1CNC(=O)[C@H]1N(C(=O)[C@@H](O)[C@H](Cc2ccccc2)NC(=O)COc2c(Cl)cccc2Cl)CSC1(C)C [Example B77, (R)-3-{(2S,3S)-3-[2-(2,6-Dichloro-phenoxy)-acetylamino]-2-hydroxy-4-phenyl-butyryl}-5,5-dimethyl-thiazolidine-4-carboxylic acid 2-methyl-benzylamide] | 1630 nM | 143 nM | < 0.1 nM | 
Cc1ccccc1C(=O)N[C@@H](Cc1ccccc1)[C@H](O)C(=O)N1CSC(C)(C)[C@H]1C(=O)N[C@@H]1C=CCCC1 [Example B80, (R)-3-{(2S,3S)-2-Hydroxy-4-phenyl-3-[(1-o-tolyl-methanoyl)-amino]-butanoyl}-5,5-dimethyl-thiazolidine-4-carboxylic acid (S)-cyclohex-2-enylamide] | 1380 nM | 419 nM | 0.15 nM | 
Cc1c(O)cccc1C(=O)N[C@@H](Cc1ccccc1)[C@H](O)C(=O)N1CSC2(CCCC2)[C@H]1C(=O)N[C@H]1CCc2ccccc21 [Example B83, (R)-3-((2S,3S)-2-Hydroxy-3-{[1-(3-hydroxy-2-methyl-phenyl)-methanoyl]-amino}-4-phenyl-butanoyl)-1-thia-3-aza-spiro[4.4]nonane-4-carboxylic acid (S)-indan-1-ylamide] | 202 nM | 9 nM | < 0.1 nM | 
Cc1c(O)cccc1C(=O)N[C@@H](Cc1ccccc1)[C@H](O)C(=O)N1CSC2(CCCCC2)[C@H]1C(=O)N[C@@H]1C=CCCC1 [Example B84, (R)-3-((2S,3S)-2-Hydroxy-3-{[1-(3-hydroxy-2-methyl-phenyl)-methanoyl]-amino}-4-phenyl-butanoyl)-1-thia-3-aza-spiro[4.5]decane-4-carboxylic acid (S)-cyclohex-2-enylamide] | 686 nM | 9 nM | < 0.1 nM | 
Cc1ccccc1CNC(=O)[C@@H]1CC(F)(F)CN1C(=O)[C@@H](O)[C@H](Cc1ccccc1)NC(=O)c1cccc(O)c1C [Example C1, (S)-4,4-Difluoro-1-[(2S,3S)-2-hydroxy-3-(3-hydroxy-2-methyl-benzoylamino)-4-phenyl-butyryl]-pyrrolidine-2-carboxylic acid 2-methyl-benzylamide] | 427 nM |  | 0.38 nM | 627 nM
Cc1c(O)cccc1C(=O)N[C@@H](Cc1ccccc1)[C@H](O)C(=O)N1CC(F)(F)C[C@H]1C(=O)N[C@@H]1C=CCCC1 [Example C4, (S)-4,4-Difluoro-1-((2S,3S)-2-hydroxy-3-{[1-(3-hydroxy-2-methyl-phenyl)-methanoyl]-amino}-4-phenyl-butanoyl)-pyrrolidine-2-carboxylic acid (S)-cyclohex-2-enylamide] | 1900 nM | 236 nM | 0.17 nM | 
Cc1c(F)cccc1CNC(=O)[C@@H]1CC(F)(F)CN1C(=O)[C@@H](O)[C@H](Cc1ccccc1)NC(=O)c1cccc(O)c1C [Example C5, (S)-4,4-Difluoro-1-((2S,3S)-2-hydroxy-3-{[1-(3-hydroxy-2-methyl-phenyl)-methanoyl]-amino}-4phenyl-butanoyl)-pyrrolidine-2-carboxylic acid 3-fluoro-2-methyl-benzylamide] | 1610 nM | 669 nM | 0.6 nM | 
Cc1ccc(F)cc1CNC(=O)[C@@H]1CC(F)(F)CN1C(=O)[C@@H](O)[C@H](Cc1ccccc1)NC(=O)c1cccc(O)c1C [Example C6, (S)-4,4-Difluoro-1-((2S,3S)-2-hydroxy-3-{[1-(3-hydroxy-2-methyl-phenyl)-methanoyl]-amino}-4-phenyl-butanoyl)-pyrrolidine-2-carboxylic acid 5-fluoro-2-methyl-benzylamide] | 1940 nM | 744 nM | 2.4 nM | 
C/C=C(\C)CNC(=O)[C@@H]1CC(F)(F)CN1C(=O)[C@@H](O)[C@H](Cc1ccccc1)NC(=O)c1cccc(O)c1C [Example C8, (S)-4,4-Difluoro-1-((2S,3S)-2-hydroxy-3-{[1-(3-hydroxy-2-methyl-phenyl)-methanoyl]-amino}-4-phenyl-butanoyl)-pyrrolidine-2-carboxylic acid ((E)-2-methyl-but-2-enyl)-amide] | 1420 nM |  | 1.5 nM | 152 nM
Cc1ccccc1CNC(=O)[C@H]1N(C(=O)[C@@H](O)[C@H](Cc2ccccc2)NC(=O)c2cccc(O)c2C)CC(F)(F)C1(C)C [Example C15, (S)-4,4-Difluoro-1-[(2S,3S)-2-hydroxy-3-(3-hydroxy-2-methyl-benzoylamino)-4-phenyl-butyryl]-3,3-dimethyl-pyrrolidine-2-carboxylic acid 2-methyl-benzylamide] | 57 nM | 25 nM | < 0.1 nM | 
